Laboratory results taken from PubChem BioAssay AID2060614 (Molecular Pharmacology Branch, DTP, NCI, 2025).
Where “and” joins values, the source holds several entries; their conditions need not be identical. Equal entries are not always repeated.

Test system: 598228-144-R-J1-PDC complex spheroids, viability
Test: Anticancer human tumor 598228-144-R-J1-PDC patient-derived serous endometrial adenocarcinoma cell line growth inhibition [CLK]
Settings: for viability, T/C: stronger effect = lower value
How it was run: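 Multi-cell-type spheroids combined patient-derived tumor cells with HUVEC endothelial cells and human mesenchymal stem cells. Paired agents were dosed in half-log steps down from about clinical Cmax, or from 10 microM where Cmax was unknown.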

[1] = curve of first compound, second compound 0.0316 µM
[2] = curve of first compound, second compound 0.1 µM
[3] = curve of first compound, second compound 0.316 µM
[4] = curve of first compound, second compound 1 µM
[5] = curve of first compound, second compound 3.16 µM
[6] = curve of first compound, second compound 10 µM
[7] = second compound 0.0316 µM, first compound 0.0316 µM
[8] = second compound 0.0316 µM, first compound 0.1 µM
[9] = second compound 0.0316 µM, first compound 0.316 µM
[10] = second compound 0.0316 µM, first compound 1 µM
[11] = second compound 0.0316 µM, first compound 3.16 µM
[12] = second compound 0.0316 µM, first compound 10 µM
[13] = second compound 0.1 µM, first compound 0.0316 µM
[14] = second compound 0.1 µM, first compound 0.1 µM
[15] = second compound 0.1 µM, first compound 0.316 µM
[16] = second compound 0.1 µM, first compound 1 µM
[17] = second compound 0.1 µM, first compound 3.16 µM
[18] = second compound 0.1 µM, first compound 10 µM
[19] = second compound 0.316 µM, first compound 0.0316 µM
[20] = second compound 0.316 µM, first compound 0.1 µM
[21] = second compound 0.316 µM, first compound 0.316 µM
[22] = second compound 0.316 µM, first compound 1 µM
[23] = second compound 0.316 µM, first compound 3.16 µM
[24] = second compound 0.316 µM, first compound 10 µM
[25] = second compound 1 µM, first compound 0.0316 µM
[26] = second compound 1 µM, first compound 0.1 µM
[27] = second compound 1 µM, first compound 0.316 µM
[28] = second compound 1 µM, first compound 1 µM
[29] = second compound 1 µM, first compound 3.16 µM
[30] = second compound 1 µM, first compound 10 µM
[31] = second compound 3.16 µM, first compound 0.0316 µM
[32] = second compound 3.16 µM, first compound 0.1 µM
[33] = second compound 3.16 µM, first compound 0.316 µM
[34] = second compound 3.16 µM, first compound 1 µM
[35] = second compound 3.16 µM, first compound 3.16 µM
[36] = second compound 3.16 µM, first compound 10 µM
[37] = second compound 10 µM, first compound 0.0316 µM
[38] = second compound 10 µM, first compound 0.1 µM
[39] = second compound 10 µM, first compound 0.316 µM
[40] = second compound 10 µM, first compound 1 µM
[41] = second compound 10 µM, first compound 3.16 µM
[42] = second compound 10 µM, first compound 10 µM
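Note: spheroids exposed to compounds for seven days before readout.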
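Throughout, for viability, T/C: 100% = DMSO vehicle control wells.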

In the case of `CC1(C)CCC(CN2CCN(c3ccc(C(=O)NS(=O)(=O)c4ccc(NCC5CCOCC5)c([N+](=O)[O-])c4)c(Oc4cnc5[nH]ccc5c4)c3)CC2)=C(c2ccc(Cl)cc2)C1` + CNC(=O)c1ccc(Nc2nc(OC3CCCC3)c3c(-c4ccc5nc(C)oc5c4)c[nH]c3n2)c(OC)c1, the IC50 [1] is reported as 7.05 µM, the IC50 [2] is reported as 6.44 µM and the IC50 [3] is reported as 6.42 µM. The IC50 [4] was 6.64 µM, the IC50 [5] was 6.11 µM and the IC50 [6] was 6.42 µM. For the same compound, the viability, T/C [7] was 96.4%, the viability, T/C [8] was 116% and the viability, T/C [9] was 105%. For the same compound, the viability, T/C [10] was 96.5%, the viability, T/C [11] was 100% and the viability, T/C [12] was 28.1%. The viability, T/C [13] was 105%, the viability, T/C [14] was 97.6% and the viability, T/C [15] was 103%. For the same compound, the viability, T/C [16] was 99.4%, the viability, T/C [17] was 99.4% and the viability, T/C [18] was 19.5%. The viability, T/C [19] was 106%, the viability, T/C [20] was 104% and the viability, T/C [21] was 98.5%. The viability, T/C [22] was 103%, the viability, T/C [23] was 105% and the viability, T/C [24] was 16.6%. The viability, T/C [25] was 106%, the viability, T/C [26] was 99.9% and the viability, T/C [27] was 96.5%. For the same compound, the viability, T/C [28] was 95.4%, the viability, T/C [29] was 99.2% and the viability, T/C [30] was 22.8%. For the same compound, the viability, T/C [31] was 99.1%, the viability, T/C [32] was 91.1% and the viability, T/C [33] was 79.9%. It also gave a viability, T/C [34] of 84.3%, a viability, T/C [35] of 89.3% and a viability, T/C [36] of 21%. The viability, T/C [37] was 86.3%, the viability, T/C [38] was 89% and the viability, T/C [39] was 83.3%. For the same compound, the viability, T/C [40] was 81.2%, the viability, T/C [41] was 97.6% and the viability, T/C [42] was 26.6%.

With `CCc1c2c(nc3ccc(O)cc13)-c1cc3c(c(=O)n1C2)COC(=O)[C@]3(O)CC` the viability, T/C (compound 0.00316 µM) was 54.7% and 48.2%, the viability, T/C (compound 0.01 µM) was 61.4% and 56.1% and the viability, T/C (compound 0.0316 µM) was 45% and 44.2%. For the same compound, the viability, T/C (compound 0.1 µM) was 29% and 22.6%, the viability, T/C (compound 0.316 µM) was 16.5% and 15.5% and the viability, T/C (compound 1 µM) was 4.57% and 6.27%. For the same compound, the IC50 (curve of compound) was 0.0208 µM and 0.0126 µM.

Work on `CC(Nc1ccc2c(c1)OCCn1cc(N3C(=O)OCC3C(F)F)nc1-2)C(N)=O` (stereo not given) + CNC(=O)c1ccc(Nc2nc(OC3CCCC3)c3c(-c4ccc5nc(C)oc5c4)c[nH]c3n2)c(OC)c1 yielded an IC50 [1] of 0.309 µM, an IC50 [2] of 0.31 µM and an IC50 [3] of 0.248 µM. The IC50 [4] was 0.159 µM, the IC50 [5] was 0.145 µM and the IC50 [6] was 0.1 µM. For the same compound, the viability, T/C [7] was 91.9%, the viability, T/C [8] was 62.8% and the viability, T/C [9] was 53.1%. The viability, T/C [10] was 38.2%, the viability, T/C [11] was 31.5% and the viability, T/C [12] was 25.8%. For the same compound, the viability, T/C [13] was 88.2%, the viability, T/C [14] was 70.3% and the viability, T/C [15] was 47%. It also gave a viability, T/C [16] of 35.5%, a viability, T/C [17] of 35.5% and a viability, T/C [18] of 22.1%. The viability, T/C [19] was 77.5%, the viability, T/C [20] was 58.5% and the viability, T/C [21] was 51.6%. It also gave a viability, T/C [22] of 32.2%, a viability, T/C [23] of 26.2% and a viability, T/C [24] of 22.9%. The viability, T/C [25] was 75.2%, the viability, T/C [26] was 56.4% and the viability, T/C [27] was 37.4%. It also gave a viability, T/C [28] of 32.4%, a viability, T/C [29] of 23.1% and a viability, T/C [30] of 12.8%. It also gave a viability, T/C [31] of 69.7%, a viability, T/C [32] of 58.4% and a viability, T/C [33] of 33.8%. It also gave a viability, T/C [34] of 26.4%, a viability, T/C [35] of 21.2% and a viability, T/C [36] of 13.7%. For the same compound, the viability, T/C [37] was 70.3%, the viability, T/C [38] was 50.6% and the viability, T/C [39] was 33.1%. The viability, T/C [40] was 22.9%, the viability, T/C [41] was 18.8% and the viability, T/C [42] was 12.6%.

In the case of `C=C(F)C(=O)N1CCN(c2nc(OCC3CCCN3C)nc3c2CCN(c2cccc4cccc(Cl)c24)C3)CC1CC#N` (stereo not given), the viability, T/C (compound 0.0316 µM) is reported as 91% and 112%, the viability, T/C (compound 0.1 µM) is reported as 107% and 89.4% and the viability, T/C (compound 0.316 µM) is reported as 97.2% and 105%. The viability, T/C (compound 1 µM) was 109% and 103%, the viability, T/C (compound 3.16 µM) was 66.6% and 68.1% and the viability, T/C (compound 10 µM) was 0.83% and 0.61%. The IC50 (curve of compound) was 4.23 µM and 4.3 µM.

Work on `O=C(c1cc(Cc2n[nH]c(=O)c3ccccc23)ccc1F)N1CCN(C(=O)C2CC2)CC1` + CNC(=O)c1ccc(Nc2nc(OC3CCCC3)c3c(-c4ccc5nc(C)oc5c4)c[nH]c3n2)c(OC)c1 yielded an IC50 [1] of over 10 µM, an IC50 [2] of over 10 µM and an IC50 [3] of over 10 µM. It also gave an IC50 [4] of over 10 µM, an IC50 [5] of over 10 µM and an IC50 [6] of over 10 µM. The viability, T/C [7] was 112%, the viability, T/C [8] was 125% and the viability, T/C [9] was 115%. The viability, T/C [10] was 129%, the viability, T/C [11] was 124% and the viability, T/C [12] was 113%. It also gave a viability, T/C [13] of 129%, a viability, T/C [14] of 127% and a viability, T/C [15] of 106%. The viability, T/C [16] was 129%, the viability, T/C [17] was 127% and the viability, T/C [18] was 105%. For the same compound, the viability, T/C [19] was 112%, the viability, T/C [20] was 130% and the viability, T/C [21] was 111%. The viability, T/C [22] was 118%, the viability, T/C [23] was 117% and the viability, T/C [24] was 113%. For the same compound, the viability, T/C [25] was 121%, the viability, T/C [26] was 101% and the viability, T/C [27] was 99%. For the same compound, the viability, T/C [28] was 115%, the viability, T/C [29] was 123% and the viability, T/C [30] was 94%. The viability, T/C [31] was 114%, the viability, T/C [32] was 102% and the viability, T/C [33] was 108%. For the same compound, the viability, T/C [34] was 97.6%, the viability, T/C [35] was 106% and the viability, T/C [36] was 117%. It also gave a viability, T/C [37] of 98.5%, a viability, T/C [38] of 97.8% and a viability, T/C [39] of 92.6%. It also gave a viability, T/C [40] of 121%, a viability, T/C [41] of 109% and a viability, T/C [42] of 104%.
